Reference: US11890324B2, “Compounds for use in inducing myocardial perfusion recovery” (Epoqe Pharma ApS, priority 2018, dated 2024)
Values joined by “and” are separate entries in the source; they are usually repeats but may differ in a detail not shown here. Equal values may be shown once. “Also recorded” adds a separate entry of the source.

How the values were obtained:
[1] = test system: coronary (left anterior descending artery, LAD) artery segments; experiment: Vasodilation of isolated precontracted artery segments (wire myograph), coronary artery; format: cell-based, rat
Experimental: (§1) Basilar, mesenteric and coronary arteries were isolated immediately and ring artery segments were stored in ice cold PSS buffer before being mounted on 40 μm stainless steel wires in a Multi Wire Myograph System organ bath (model 610M, Danish Myo Technology A/S, Denmark). Each segment was immersed in 37° C. PSS solution, continuously aerated with 5% CO2/95% O2 to maintain pH 7.4. […] One wire was connected to a micrometer screw enabling adjustments of the distance between the wires. The other wire was connected to a force displacement transducer attached to an analogue-digital converter unit (ADInstruments, Chalgrove, UK).
(§2) Measurements of vascular tone were recorded using the data acquisition hardware Power Lab unit (ADInstruments). To ensure optimal conditions for maximal force development, each artery segment was carefully stretched to 90% of the internal circumference that the vessel would have under the passive transmural pressure of 100 mm Hg. Following an equilibration period of approximately 20 min, each segment was exposed twice to KPSS to confirm smooth muscle cell viability and the reproducibility of depolarization-induced contractions.
After 15 min equilibration, a stable precontraction tone (50-80% of the KPSS-induced steady state contraction) was induced in arterial segments by PGF2α (3-10 μM). […]
Vasodilation is expressed as percentage of the remaining precontraction tone induced by PGF2α. […] Active tension was determined by subtracting the passive tension (resting tension in PSS) from the total tension (during KPSS or PGF2α challenge).
(§3) All pharmacological data were analysed using Prism 7.02 (GraphPad Software Inc., San Diego, CA) and given as mean±S.E.M. For all analyses, the data were unweighted and each y value (mean of replicates for each individual experiment) was considered an individual point.
(§4) Differences in pEC50 and Emax values were analysed with paired (animal) t-tests and considered significant as P<0.05.

[2] = test system: rats with acute myocardial infarction (permanent LAD occlusion); experiment: Rat model of acute myocardial infarction (permanent LAD occlusion), myocardial perfusion imaging by SPECT/CT
Experimental: Experimental myocardial infarction is induced by LAD ligation in rats. Size of the acute myocardial perfusion defect is determined by myocardial perfusion imaging using SPECT/CT. […] All surviving rats underwent follow-up myocardial perfusion imaging using SPECT/CT 21 days after the infarct to determine the final infarct size.
AMI surgery was conducted using the procedure for permanent LAD occlusion.
The rats were anaesthetized with 4% sevoflurane. Rats were intubated and ventilated (UNO micor-ventilator-O3, Netherlands) and maintained anaesthetized with sevuflorane 2.5% to 4%. Rats were placed on a heated surface during surgery. In the rat's tail vein a 24G intravenous catheter was placed (Vasofix® Safety, Braun, Denmark). Before incision the rats were pain treated subcutaneously with Buprenorphine 0.05 mg/kg. After surgery the rats were paintreated four times the first 24 hours and three times the next 24-72 hours.
After insuring sterile surgical conditions, an incision was made in the skin and a thoracotomy was performed. This was placed at either the third or fourth intercostal space depending on size. The pericardium was identified and opened. After inspection of the heart, the LAD was identified and ligated caudal of its origin with a 5-0 polypropylene suture. The myocardium was visually observed for ischemia. If there was no discoloration of the myocardium, another suture was made until ischemia was confirmed by discoloration of the myocardium. One minute after ligation, the rats were injected intravenously with 99-technetium sestamibi to determine the acute perfusion defect. After injection of sestamibi, suture type vicryl 4-0 was used to close the thoracotomy, muscle layer and skin.
Rats underwent single photon emission computer tomography (SPECT) on the day of the surgery and 21 days post-surgery to determine acute and final perfusion defect size. Imaging was performed on a preclinical SPECT/CT scanner (Mediso Nanoscan, Hungary). The rats were anesthetized with sevuflorane 4% for SPECT-scan to be obtained. On the day of the surgery, the rats were perioperatively injected with 99-technetium Sestamibi (median 106 mBq [99; 116]) as described above. On the 21-days follow-up the rats were anesthetized with sevoflurane 4%. In the rat's tail vein an 24G intravenous catheter was placed (Vasofix® Safety, Braun, Denmark). After the catheter was placed, the rats were injected with 99-tecnetium (median 122 [106; 129]).

[3] = test system: hypertension in experimental animals; details: cited from earlier work
[4] = test system: peripheral (mesenteric) artery segments; experiment: Vasodilation of isolated precontracted artery segments (wire myograph), mesenteric artery; format: cell-based, rat
Experimental: as §1, §2
(§5) After 15 min equilibration, a stable precontraction tone (50-80% of the KPSS-induced steady state contraction) was induced in arterial segments by PGF2α (3-10 μM).
(§6) Concentration-dependent vasodilatory responses of artery segments were normalized as percentage of precontraction remaining.
(§7) Vasodilation is expressed as percentage of the remaining precontraction tone induced by PGF2α. Vessel wall tension=Force/(vessel wall length), where vessel wall length=2×segment length. Active tension was determined by subtracting the passive tension (resting tension in PSS) from the total tension (during KPSS or PGF2α challenge).
as §3, §4

[5] = target: T1, CGRP receptor (Homo sapiens, UniProt O60894+Q16602); details: literature (Sheykhzade 2018; Nilsson 2016); cited from earlier work
T1 construct: host or cells: naturally occurring cells, recombinant CGRP receptor expressing cell lines, isolated artery segments (none specified)

[6] = test system: coronary LAD artery segments; experiment: CGRP-agonist sensibilization: repeated dose-response and artery culture, coronary LAD; format: cell-based, rat
Description: (§8) Artery segments were divided for comparison of the effect of Compound I and CGRP in fresh and cultured artery segments, respectively.

[7] = test system: mesenteric artery segments; experiment: CGRP-agonist sensibilization: repeated dose-response and artery culture, mesenteric artery; format: cell-based, rat; details: isolated mesenteric artery
Description: as §8

[8] = test system: cerebral (basilar) artery segments; experiment: Vasodilation of isolated precontracted artery segments (wire myograph), basilar artery; format: cell-based, rat
Experimental: as §1, §2, §5, §6, §7, §3, §4

[9] = all completers, 21 days after infarct, mean ± SEM
[10] = subgroup with acute perfusion defect < 15%, 21 days, mean ± SEM

T1 sequence (Q16602 23-461): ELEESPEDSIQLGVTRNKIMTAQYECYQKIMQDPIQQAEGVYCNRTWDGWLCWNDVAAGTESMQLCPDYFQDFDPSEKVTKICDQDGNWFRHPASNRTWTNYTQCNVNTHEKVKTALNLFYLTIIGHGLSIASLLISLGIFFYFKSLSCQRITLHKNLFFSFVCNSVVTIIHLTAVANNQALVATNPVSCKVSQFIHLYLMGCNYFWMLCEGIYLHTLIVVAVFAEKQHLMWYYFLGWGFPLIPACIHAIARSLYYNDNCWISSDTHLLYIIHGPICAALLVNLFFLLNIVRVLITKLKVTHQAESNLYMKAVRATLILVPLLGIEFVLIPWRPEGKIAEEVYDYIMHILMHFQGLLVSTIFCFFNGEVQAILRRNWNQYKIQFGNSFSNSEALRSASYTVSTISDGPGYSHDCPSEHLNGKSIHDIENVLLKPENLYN
T1 sequence (O60894 27-148): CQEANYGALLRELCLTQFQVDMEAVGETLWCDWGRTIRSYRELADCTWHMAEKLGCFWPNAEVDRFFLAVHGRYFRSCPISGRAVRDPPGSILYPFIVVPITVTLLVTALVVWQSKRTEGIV

N-alpha-[2-(2-{2-[(S)-4-Carboxy-4-(17-carboxyheptadecanoylamino)-butyrylamino]-ethoxy}ethoxy)acetyl](Ser1]alpha-human CGRP peptide [Compound I]
Vasodilation efficacy compared with CGRP (in words) ([1]; coronary artery): comparable efficacy; also recorded: not different | Potency ratio (EC50 CGRP: EC50 Compound 1) ([1]; coronary artery segments): ~1 | Vasodilatory potency compared with CGRP (in words) ([1]; coronary artery segments): equipotent; also recorded: similar; also recorded: not different | Perfusion recovery, % [2, 9]: 55.1±6.6% and 55.1 ± 6.4% | Perfusion recovery, SRS [2, 9]: 6.5 ± 1 SRS | Animals surviving the surgery and the 3 weeks recovery period (survival rate) ([2]; rat, in vivo): 75% | Effect on survival rate (in words) ([2]; rat, in vivo): tendency (not statistically significant) towards an increased survival rate | Further rats that died during the 21-days follow-up period ([2]; rat, in vivo): 14% | Perfusion recovery in subgroup, % [2, 10]: 66.2 ± 9.0% | Perfusion recovery in subgroup, SRS [2, 10]: 3.8 ± 0.6 SRS | Effect on myocardial perfusion recovery (in words) ([2]; treatment for 3 successive days after experimental AMI, 3 weeks): large improvement of myocardial perfusion recovery; also recorded: significant improved recovery of perfusion defect | Effect on hypertension (in words) [3]: reversing hypertension and complications of hypertension | Potency difference between CGRP and Compound I ([4]; mesenteric artery): 5-10 fold | Potency ratio (EC50 CGRP: EC50 Compound 1) ([4]; mesenteric artery): 0.1-0.2 | Vasodilation efficacy compared with CGRP (in words) ([4]; mesenteric artery): comparable efficacy | Vasodilatory potency compared with CGRP (in words) ([4]; mesenteric artery): lower | Potency in peripheral compared with coronary artery (in words) ([4]; peripheral (mesenteric) versus coronary artery): not lower | In vitro potency lower than that of CGRP [5]: approximately 10 times | Effect of repeated cumulative stimulation on potency ratio Compound I/CGRP (in words) [6]: does not change the potency ratio | Effect of artery culture on CGRP-agonist-induced vasodilation (in words) ([6]; culture 24 h at 37° C. in absence and presence of 10 nM Compound I): induce sensibilization | Effect of repeated cumulative stimulation on potency (in words) ([6]; second dose-response curve 90-120 minutes after the first): shift in potency towards significant sensitization | Potency ratio between Compound I and CGRP after repeated dose-response (in words) [7]: maintained | CGRP-agonist-induced CGRP sensibilization (in words) ([7]; repeated dose-response and culture): no CGRP-agonist-induced CGRP sensibilization | Vasodilation efficacy compared with CGRP (in words) ([8]; basilar artery): comparable efficacy | Vasodilatory potency compared with CGRP (in words) ([8]; basilar artery): lower | Potency difference between CGRP and Compound I ([8]; cerebral artery): 5-10 fold | Potency ratio (EC50 CGRP: EC50 Compound 1) ([8]; cerebral artery): 0.1-0.2

N-alpha-[2-(2-{2-[(S)-4-Carboxy-4-(17-carboxyheptadecanoylamino)butyryl-amino]ethoxy}ethoxy)acetyl](Ser1]beta-human CGRP peptide [Compound II]
In vitro potency lower than that of CGRP [5]: approximately 10 times
